Reference: US20090023769A1, “Organic Compounds” (NOVARTIS AG, priority 2006, published 2009)

Tested on: monocrotaline reversal model of pulmonary hypertension
Assay: monocrotaline reversal model of pulmonary hypertension
Type: in vivo
Details: 3 mg/kg orally once daily from days 21-42; also dosed at 0.3 and 1 mg/kg
Method: The compound of formula II, namely 4-[8-(3-Fluorophenyl)-[1,7]naphthyridin-6-yl]-cyclohexanecarboxylic acid and being a representative example of compounds of formula I, is tested in the monocrotaline reversal model of pulmonary hypertension that is described by Schermuly et al in The Journal of Clinical Investigation 2005 October; 115(10):2811-21. The disclosure of that article is incorporated herein by way of reference.
4-[8-(3-Fluorophenyl)-[1,7]-naphthyridin-6-yl]-cyclohexanecarboxylic acid is dosed orally to the animals once daily from days 21-42 of the experiment at 0.3, 1 and 3 mg/kg.

O=C(O)C1CCC(c2cc3cccnc3c(-c3cccc(F)c3)n2)CC1 (stereo not shown) [4-[8-(3-Fluorophenyl)-[1,7]naphthyridin-6-yl]-cyclohexanecarboxylic acid]
shows efficacy: medial wall thickness | mortality | reversal of RV (right ventricular) pressure | reversal of RV hypertrophy
